Reference: patent US20230167105A1, “BCL-2 PROTEIN INHIBITORS” (Recurium IP Holdings, LLC, priority 2020, published 2023)

Key:
MOLT-4 cells = assay: MOLT-4 Cell Proliferation Assay (CellTiter-Glo); type: cell-based; conditions: Homo sapiens, 72 h, read-out: MOLT-4 CTG IC50
Method in brief: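 MOLT-4 cells at 50,000/well in serum-supplemented medium received a 10-point 1:3 dilution series (top 10 μM final, 0.1% DMSO) in duplicate for 72 h at 37 °C. Viability was read as CellTiter-Glo luminescence, and IC50 came from nonlinear regression.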

Bcl-xL = molecular target: T1, Bcl-xL (Homo sapiens, UniProt Q07817); assay: Protein Degradation Assay in MOLT-4 Cells (Western blot); type: cell-based; conditions: 50 nM compound, 16 hours, FIGS. 7 and 8
T1 construct: endogenous in cells; host or cells: MOLT-4 (ATCC CRL-1582)
T1 sequence (Q07817 whole entry): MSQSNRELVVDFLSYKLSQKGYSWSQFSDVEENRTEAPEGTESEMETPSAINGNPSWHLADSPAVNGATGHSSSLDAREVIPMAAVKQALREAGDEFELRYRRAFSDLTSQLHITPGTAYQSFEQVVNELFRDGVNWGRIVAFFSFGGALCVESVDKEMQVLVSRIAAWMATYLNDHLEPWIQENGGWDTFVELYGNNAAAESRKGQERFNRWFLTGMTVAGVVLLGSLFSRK
Procedure: MOLT-4 (ATCC, CRL-1582) (FIGS. 7,8) were incubated with vehicle or 50 nM concentrations of the indicated compounds for 16 hours. For proteasome inhibition, MOLT-4 cells (250,000 cells/well) were pretreated with 1 μM of MG132 for 1 hour before the addition of 100 nM of the indicated compounds for 16 h. After treatment, the cells were harvested in RIPA lysis buffer supplemented with 1% Phosphatase Inhibitor and Protease Inhibitor Cocktail. An equal amount of protein (10 μg/lane) from each cell extract was resolved on a 4-12% Bis-Tris gel. Proteins were transferred using iBlot 2 Transfer Stacks. The membranes were blocked with 5% nonfat milk in TBS-T buffer (50 mM Tris-HCL, pH 7.6; 150 mM NaCl; and 0.05% Tween) and probed with primary antibodies (1:1000 dilution) overnight at 4° C. After three washes with TBS-T (10 min/wash), the membranes were incubated with an appropriate peroxidase-conjugated secondary antibody (Cell Signaling Technology, USA) for 1 hour at rt. After three washes with TBS-T, the proteins of interest were detected with ECL Western Blotting Detection Reagents and captured with an Azure imaging system. The band intensities were determined using ImageJ software and normalized to loading control β-actin or GAPDH. The primary antibodies Bcl-xL (#2762), Bcl-2 (#2872s), and GAPDH (#5174) were purchased from Cell Signaling Technology.

SMILES: Cc1ncsc1-c1ccc([C@H](C)NC(=O)[C@@H]2C[C@@H](O)CN2C(=O)[C@@H](NC(=O)CCCCCC(=O)N(C)C2CCN(CC[C@H](CSc3ccccc3)Nc3ccc(S(=O)(=O)NC(=O)c4ccc(N5CCN(CC6=C(C78CC(C(F)F)(C7)C8)CC(C)(C)CC6)CC5)cc4)cc3S(=O)(=O)C(F)(F)F)CC2)C(C)(C)C)cc1 [Example 44, N1-(1-((R)-3-((4-(N-(4-(4-((2-(3-(difluoromethyl)bicyclo[1.1.1]pentan-1-yl)-4,4-dimethylcyclohex-1-en-1-yl)methyl)piperazin-1-yl)benzoyl)sulfamoyl)-2-((trifluoromethyl)sulfonyl)phenyl)amino)-4-(phenylthio)butyl)piperidin-4-yl)-N7-((S)-1-((2S,4R)-4-hydroxy-2-(((S)-1-(4-(4-methylthiazol-5-yl)phenyl)ethyl)carbamoyl)pyrrolidin-1-yl)-3,3-dimethyl-1-oxobutan-2-yl)-N1-methylheptanediamide]
- IC50 (MOLT-4 cells): 50 to 150 nM
- BCL-xL degradation in MOLT-4 cells (Bcl-xL): induce BCL-xL degradation
